The test system of assay [1] is CD4+ T cells induced to differentiate into Th17. Description: Differentiation and functional enhancement activity of Th17 cells (IL-17 expression). In kind it is cell-based, C57BL/6J mice. Conditions: 25 μM final concentration; culture for 3 days under Th17 differentiation conditions; Veh control about 35%. The text has this:
8-week-old C57BL/6J mice were purchased and adapted for 1 week, and then CD4+ T cells were isolated from spleens and lymph nodes. Th17 cell differentiation was induced by media containing IL-6, TGF-beta1, IL-1beta, anti-IFN-gamma, and anti-IL-4, and through culturing for 3 days, it was confirmed that about 35% of IL-17 cytokine was expressed in a Veh group, which was a control group treated with only a solvent of the compound, thereby establishing basic conditions for the differentiation of Th17 cells. Under the conditions of differentiation of Th17 cells, each substance was treated at a final concentration of 25 μM.
As a result, as may be seen in the drawings, it was confirmed that Compounds 1 to 3 increased the IL-17 cytokine expression by 70%, 63%, and 62%, respectively, and through this, it was confirmed that the three compounds were able to improve the differentiation and function of Th17 cells.

The test system of assay [2] is CD4+ T cells induced to differentiate into Treg. Description: Differentiation and function of Treg cells (Foxp3 expression). In kind it is cell-based, C57BL/6J mice. Particulars: 25 μM final concentration; culture for 3 days in medium containing IL-2 and TGF-beta1; control about 19%. Here is the method:
• 8-week-old C57BL/6J mice were purchased and adapted for 1 week, and then CD4+ T cells were isolated from spleens and lymph nodes. Differentiation of regulatory T cells was transferred through a medium containing IL-2 and TGF-beta1, and through culture for 3 days, it was confirmed that about 19% of a Foxp3 transcription factor was expressed in the control group. Each substance was treated at a final concentration of 25 μM.

Take `COc1cc(/C=C/C(=O)OC[C@H]2O[C@@H](OCCc3ccc(O)c(OC)c3)[C@H](O)[C@@H](O[C@@H]3O[C@H](CO)[C@@H](O)[C@H](O)[C@H]3O[C@@H]3O[C@H](CO)[C@@H](O)[C@H](O)[C@H]3O)[C@@H]2O)ccc1O` [Compound 3, veroninakaioside H]: in assay [1], the “increased the IL-17 cytokine expression” value came to 62%. Moreover, the “reduced the Foxp3 transcription factor expression” value in assay [2] is recorded as 6.6%.
As for `COc1ccc(CCO[C@@H]2O[C@H](CO)[C@@H](OC(=O)/C=C/c3ccc(O)c(OC)c3)[C@H](O[C@@H]3O[C@H](CO)[C@@H](O)[C@H](O)[C@H]3O)[C@H]2O[C@@H]2O[C@H](CO)[C@@H](O)[C@H](O)[C@H]2O)cc1O` [Compound 2, chionoside I], the “increased the IL-17 cytokine expression” value in assay [1] is reported as 63%. Moreover, in assay [2], the “reduced the Foxp3 transcription factor expression” value stood at 8.3%.
The like results for `CO[C@@H]1C[C@H]2[C@H](OC(=O)c3ccc(O)c(O)c3)[C@@H]3O[C@]3(CO)[C@H]2C(O[C@@H]2O[C@H](CO)[C@@H](O)[C@H](O)[C@H]2O)O1` (stereo partly drawn) [Compound 1, veroninakaioside G] were, in that order, 70% and 4.4%.

The record behind these values is patent publication US20240216462A1, “PHARMACEUTICAL COMPOSITION FOR ENHANCING IMMUNITY OR ANTI-CANCER ACTIVITY INCLUDING EXTRACT OF PSEUDOLYSIMACHION NAKAIANUM (OHWI) T.YAMAZ AS ACTIVE INGREDIENT” (KOREA INSTITUTE OF SCIENCE AND TECHNOLOGY, priority 2022, published 2024).
